From the NIST ThermoML archive (doi:10.1016/j.jct.2015.06.009)
± gives the expanded uncertainty stated by the source.

Tests used:
[1] = refractive index (Na D-line) (dimensionless); settings: 298.15 K; 101.33 kPa; Liquid; Standard Abbe refractometry
[2] = 101 kPa, Liquid; for speed of sound: Frequency=3 MHz, Sing-around technique in a fixed-path interferometer; for mass density: Vibrating tube method
[3] = xn = mol fraction of the nth substance listed; settings: 101 kPa, Liquid; for speed of sound: Frequency=3 MHz, Sing-around technique in a fixed-path interferometer; for mass density: Vibrating tube method

COC(C)(C)C [2-methoxy-2-methylpropane]
Settings | refractive index
[1] | 1.36648 ± 0.00031

[2]
Settings | mass density [kg/m3] | speed of sound [m/s]
298.15 K | 735.21 ± 0.16 | 1036.3 ± 1.1
308.15 K | 724.64 ± 0.16 | 990.46 ± 1.1
318.15 K | 714 ± 0.17 | 944.87 ± 1.1
328.15 K | 703.29 ± 0.17 | –

CCCCO [butan-1-ol]
Settings | refractive index
[1] | 1.39733 ± 0.00031

[2]
Settings | mass density [kg/m3] | speed of sound [m/s]
298.15 K | 805.73 ± 0.14 | 1240 ± 1.2
308.15 K | 798.07 ± 0.15 | 1206.6 ± 1.2
318.15 K | 790.37 ± 0.15 | 1173.4 ± 1.2
328.15 K | 782.58 ± 0.15 | 1140.4 ± 1.2

CCCCO [butan-1-ol] + COC(C)(C)C
[3], x2 = 0
Settings | mass density [kg/m3] | speed of sound [m/s]
298.15 K | 805.73 ± 0.14 | 1240 ± 1.2
308.15 K | 798.07 ± 0.15 | 1206.6 ± 1.2
318.15 K | 790.37 ± 0.15 | 1173.4 ± 1.2
328.15 K | 782.58 ± 0.15 | 1140.4 ± 1.2

CCCCO [butan-1-ol] + Cc1ccccc1
[3]
Settings | mass density, 298.15 K [kg/m3] | mass density, 308.15 K [kg/m3] | mass density, 318.15 K [kg/m3] | mass density, 328.15 K [kg/m3] | speed of sound, 298.15 K [m/s] | speed of sound, 308.15 K [m/s] | speed of sound, 318.15 K [m/s] | speed of sound, 328.15 K [m/s]
x2 = 0.2008 | 818.72 ± 0.14 | 810.48 ± 0.14 | 802.18 ± 0.14 | 793.77 ± 0.15 | 1248 ± 1.2 | 1212.2 ± 1.2 | 1176.5 ± 1.2 | 1141.2 ± 1.2
x2 = 0.4064 | 830.53 ± 0.14 | 821.82 ± 0.14 | 813.05 ± 0.14 | 804.18 ± 0.14 | 1255.5 ± 1.2 | 1217.6 ± 1.2 | 1180.1 ± 1.2 | 1143 ± 1.1
x2 = 0.5993 | 840.92 ± 0.13 | 831.87 ± 0.14 | 822.79 ± 0.14 | 813.62 ± 0.14 | 1263.8 ± 1.2 | 1224.6 ± 1.2 | 1185.7 ± 1.1 | 1147.5 ± 1.1
x2 = 0.7995 | 851.36 ± 0.13 | 842.08 ± 0.13 | 832.78 ± 0.14 | 823.42 ± 0.14 | 1277.3 ± 1.2 | 1237.1 ± 1.2 | 1197.3 ± 1.1 | 1158.2 ± 1.1

Cc1ccccc1 [toluene]
Settings | refractive index
[1] | 1.49393 ± 0.00031

[2]
Settings | mass density [kg/m3] | speed of sound [m/s]
298.15 K | 862.18 ± 0.13 | 1305.3 ± 1.2
308.15 K | 852.87 ± 0.13 | 1262.5 ± 1.2
318.15 K | 843.58 ± 0.13 | 1220.2 ± 1.2
328.15 K | 834.29 ± 0.13 | 1178.5 ± 1.1
